The values below come from US5140018A, “1,3,2-benzodithiazole-1-oxide compounds” (Abbott Laboratories, priority 1991, dated 1992).

Common to all, as to format: cell-based
Test [1] concerns Candida albicans ATCC 10231. Nature of the test: In vitro antifungal MIC, Candida albicans ATCC 10231. To be noted: Candida albicans ATCC 10231, 35°-37° C., 48 hours. As for the experimental part:
(§1) The in vitro antifungal activity of the compounds of the present invention against a variety of fungiwas determined as follow: Test medium was prepared by dissolving first 5 g of dextrose and then 6.7 g of Bacto Yeast Nitrogen Base® (commercially available from Difco Laboratories) in 100 mL of distilled water. The solution was filter-sterilized and diluted 1:10 with 0.01M pH 8.0 phosphate buffer solution, and the final pH of the medium adjusted to about pH 7.0 when necessary with either 0.1N hydrochloric acid solution of 0.1N sodium hydroxide solution. […] These concentrated stock solutions were diluted to a concentration of 200 μg/mL (twice the highest concentration desired for testing) with the test medium. Amphotericin B, similarly prepared, was used as a reference antifungal agent.
(§2) The test organisms were then inoculated into test tubes containing approximately 3 to 10 mL of test medium and the test tubes incubated overnight at 37° C. A sample of each overnight culture was placed in a test tube and diluted using the test medium until a reading of 95% transmittance was obtained in a conventional UV/visible spectrophotometer set to 560 nm. The adjusted cultures were then diluted 1:50 with test medium. These diluted cultures served as the inocula for the assays which follow and were used within 15 minutes of preparation.
(§3) Next, 2-fold serial dilutions of each test compound in test medium were prepared in a 96-well microtiter plate using calibrated microdiluters attached to an automatic (hand-held) diluter (available from Dynatech Laboratories).
(§4) Using sterile calibrated droppers or a multi-point dispenser, the diluted inoculum suspension was added to each of the wells in the plate. When inoculation was complete, the microtiter tray was covered with a plastic plate sealer to minimize evaporation. After the plate had been sealed, a hole was made above each well with a sterile 26-gauge syringe needle in order to allow gas exchange. If plate sealers were not available, the microtiter trays were stacked in groups of five or less with an empty tray on top. The microtiter trays were then incubated in a humidified chamber at 35°-37° C. for 48 hours or until growth was visible in the growth control wells.
(§5) The minimum inhibitory concentration (MIC) was defined as the lowest concentration of test compound yielding no growth, a slight haze or sparsely isolated colonies on the inoculum spot as compared to the growth control containing no test compound.

Test [2] deals with Candida tropicalis NRRL-Y-112. Nature of the test: In vitro antifungal MIC, Candida tropicalis NRRL-Y-112. To be noted: Candida tropicalis NRRL-Y-112, 35°-37° C., 48 hours. On the procedure: as §1, §2, §3, §4, §5
Test [3] deals with Candida albicans ATCC 38247. Briefly: In vitro antifungal MIC, Candida albicans ATCC 38247. To be noted: Candida albicans ATCC 38247, 35°-37° C., 48 hours. On the procedure: as §1, §2, §3, §4, §5
The subject of test [4] is Candida albicans CCH 442. Briefly: In vitro antifungal MIC, Candida albicans CCH 442. As to conditions: Candida albicans CCH 442, 35°-37° C., 48 hours. As for the experimental part:
as §1, §2, §3, §4, §5

For test [5], the system named is Torulopsis glabrata ATCC 15545. Nature of the test: In vitro antifungal MIC, Torulopsis glabrata ATCC 15545. To be noted: Torulopsis glabrata ATCC 15545, 35°-37° C., 48 hours. On the procedure:
as §1, §2, §3, §4, §5

Test [6] relates to Cryptococcus albidus ATCC 34140. Nature of the test: In vitro antifungal MIC, Cryptococcus albidus ATCC 34140. As to conditions: Cryptococcus albidus ATCC 34140, 35°-37° C., 48 hours. On the procedure:
as §1, §2, §3, §4, §5

The subject of test [7] is Aspergillus niger ATCC 16404. Briefly: In vitro antifungal MIC, Aspergillus niger ATCC 16404. To be noted: Aspergillus niger ATCC 16404, 35°-37° C., 48 hours. As for the experimental part: as §1, §2, §3, §4, §5
Test [8] deals with Candida kefyr ATCC 28838. Nature of the test: In vitro antifungal MIC, Candida kefyr ATCC 28838. As to conditions: Candida kefyr ATCC 28838, 35°-37° C., 48 hours. On the procedure:
as §1, §2, §3, §4, §5

Test [9] has as its system Candida albicans ATCC 62376. Nature of the test: In vitro antifungal MIC, Candida albicans ATCC 62376. To be noted: Candida albicans ATCC 62376, 35°-37° C., 48 hours. On the procedure:
as §1, §2, §3, §4, §5

The test system of test [10] is Candida albicans 579A. Nature of the test: In vitro antifungal MIC, Candida albicans 579A. To be noted: Candida albicans 579A, 35°-37° C., 48 hours. On the procedure:
as §1, §2, §3, §4, §5

[11] abbreviates: Nakaseomyces glabratus, ATCC15545, read-out: MIC.
Setting [12] is: Naganishia albida, ATCC34140, read-out: MIC.
Where [13] appears, read: Kluyveromyces marxianus, ATCC28838, read-out: MIC.

Converted amounts (≈) assume the structure as drawn. Like-named read-outs stand apart in the source and are kept apart here.

Regarding `C=CCN1Sc2ccccc2[S+]1[O-]` (stereo not shown) [Example 10, 2-allyl-1,3,2-benzodithiazole-1-oxide], the MIC in test [1] (ATCC10231, read-out: MIC) worked out at 0.39 µg/mL (≈ 1.85 µM); in [2] (NRRLY112, read-out: MIC), 0.78 µg/mL (≈ 3.69 µM); in [3] (ATCC38247, read-out: MIC) it was 6.25 µg/mL (≈ 29.6 µM); in test [4] (CCH442, read-out: MIC) it was 0.78 µg/mL (≈ 3.69 µM); in [5] (setting [11]), 0.39 µg/mL (≈ 1.85 µM); in [6] (setting [12]), 3.12 µg/mL (≈ 14.8 µM). For the same compound, the MIC in test [7] (ATCC16404, read-out: MIC) amounted to 0.2 µg/mL (≈ 0.946 µM); in [8] (setting [13]) it was 0.2 µg/mL (≈ 0.946 µM); in test [9] (ATCC62376, read-out: MIC) it was 0.39 µg/mL (≈ 1.85 µM); in [10] (read-out: MIC), 0.39 µg/mL (≈ 1.85 µM).

Take “2-n-octyl-5-methyl-1,3,2-benzodithiazole-1-oxide; 2-n-octyl-6-methyl-1,3,2-benzodithiazole-1-oxide [Example 40]”: the MIC amounted to 1.56 µg/mL in [1]; 3.12 µg/mL in test [2]; 0.2 µg/mL in [3]; 3.12 µg/mL in test [4]; 3.12 µg/mL in test [5]; 3.12 µg/mL in test [6]. In addition, the MIC in [7] stood at 1.56 µg/mL; in [8], 0.78 µg/mL; in test [9] it was 1.56 µg/mL; in [10], 0.78 µg/mL.

For the compound `CC(C)(C)CC(C)(C)N1Sc2ccccc2[S+]1[O-]` (stereo not shown) [Example 16, 2-(1,1,3,3-tetramethylbutyl)-1,3,2-benzodithiazole-1-oxide], the minimal inhibitory concentration (MIC) was found to be 6.25 µg/mL (≈ 22 µM) in [1] (ATCC10231, read-out: MIC); 12.5 µg/mL (≈ 44.1 µM) in [2] (NRRLY112, read-out: MIC); 1.56 µg/mL (≈ 5.5 µM) in test [3] (ATCC38247, read-out: MIC); 1.56 µg/mL (≈ 5.5 µM) in test [4] (CCH442, read-out: MIC); 6.25 µg/mL (≈ 22 µM) in test [5] (setting [11]); 6.25 µg/mL (≈ 22 µM) in test [6] (setting [12]). For the same compound, the minimum inhibitory concentration (MIC) stood at 3.12 µg/mL (≈ 11 µM) in test [7] (ATCC16404, read-out: MIC); 0.78 µg/mL (≈ 2.75 µM) in test [8] (setting [13]); 6.25 µg/mL (≈ 22 µM) in [9] (ATCC62376, read-out: MIC); 3.12 µg/mL (≈ 11 µM) in [10] (read-out: MIC).

Consider `CCCN1Sc2ccccc2[S+]1[O-]` (stereo not shown) [Example 3, 2-n-propyl-1,3,2-benzodithiazole-1-oxide], for which the MIC was 0.78 µg/mL (≈ 3.66 µM) in test [1] (ATCC10231, read-out: MIC); 0.78 µg/mL (≈ 3.66 µM) in test [2] (NRRLY112, read-out: MIC); 3.12 µg/mL (≈ 14.6 µM) in test [3] (ATCC38247, read-out: MIC); 0.78 µg/mL (≈ 3.66 µM) in test [4] (CCH442, read-out: MIC); 0.78 µg/mL (≈ 3.66 µM) in test [5] (setting [11]); 3.12 µg/mL (≈ 14.6 µM) in [6] (setting [12]). Also, the MIC in test [7] (ATCC16404, read-out: MIC) was determined as 6.25 µg/mL (≈ 29.3 µM); in [8] (setting [13]) it was 0.2 µg/mL (≈ 0.938 µM); in test [9] (ATCC62376, read-out: MIC) it was 0.78 µg/mL (≈ 3.66 µM); in test [10] (read-out: MIC), 0.78 µg/mL (≈ 3.66 µM).

In the case of `CCOC(CCCN1Sc2ccccc2[S+]1[O-])OCC` (stereo not shown) [Example 25, 2-(4,4-diethoxybutyl)-1,3,2-benzodithiazole-1-oxide], the minimal inhibitory concentration (MIC) is 6.25 µg/mL (≈ 19.8 µM) in test [1] (ATCC10231, read-out: MIC); 12.5 µg/mL (≈ 39.6 µM) in [2] (NRRLY112, read-out: MIC); 1.56 µg/mL (≈ 4.95 µM) in [3] (ATCC38247, read-out: MIC); 1.56 µg/mL (≈ 4.95 µM) in test [4] (CCH442, read-out: MIC); 6.25 µg/mL (≈ 19.8 µM) in test [5] (setting [11]); 12.5 µg/mL (≈ 39.6 µM) in [6] (setting [12]). The MIC worked out at 3.12 µg/mL (≈ 9.89 µM) in test [7] (ATCC16404, read-out: MIC); 3.12 µg/mL (≈ 9.89 µM) in test [8] (setting [13]); 6.25 µg/mL (≈ 19.8 µM) in test [9] (ATCC62376, read-out: MIC); 3.12 µg/mL (≈ 9.89 µM) in test [10] (read-out: MIC).

For the compound `[O-][S+]1c2ccccc2SN1C1CC1` (stereo not shown) [Example 27, 2-cyclopropyl-1,3,2-benzodithiazole-1-oxide], the MIC in [1] (ATCC10231, read-out: MIC) came to 1.56 µg/mL (≈ 7.38 µM); in test [2] (NRRLY112, read-out: MIC), 1.56 µg/mL (≈ 7.38 µM); in test [3] (ATCC38247, read-out: MIC) it was 3.12 µg/mL (≈ 14.8 µM); in test [4] (CCH442, read-out: MIC), 1.56 µg/mL (≈ 7.38 µM); in test [5] (setting [11]), 0.78 µg/mL (≈ 3.69 µM); in test [6] (setting [12]) it was 3.12 µg/mL (≈ 14.8 µM). For the same compound, the minimum inhibitory concentration (MIC) came to 0.39 µg/mL (≈ 1.85 µM) in test [7] (ATCC16404, read-out: MIC); 0.39 µg/mL (≈ 1.85 µM) in test [8] (setting [13]); 0.78 µg/mL (≈ 3.69 µM) in test [9] (ATCC62376, read-out: MIC); 0.78 µg/mL (≈ 3.69 µM) in test [10] (read-out: MIC).

Take `CCCCCCCCCN1Sc2ccccc2[S+]1[O-]` (stereo not shown) [Example 7, 2-n-nonyl-1,3,2-benzodithiazole-1-oxide]: the MIC turned out to be 1.56 µg/mL (≈ 5.24 µM) in test [1] (ATCC10231, read-out: MIC); 1.56 µg/mL (≈ 5.24 µM) in [2] (NRRLY112, read-out: MIC); 1.56 µg/mL (≈ 5.24 µM) in test [3] (ATCC38247, read-out: MIC); 1.56 µg/mL (≈ 5.24 µM) in test [4] (CCH442, read-out: MIC); 1.56 µg/mL (≈ 5.24 µM) in test [5] (setting [11]); 6.25 µg/mL (≈ 21 µM) in [6] (setting [12]). The minimum inhibitory concentration (MIC) was 0.78 µg/mL (≈ 2.62 µM) in [7] (ATCC16404, read-out: MIC); 0.78 µg/mL (≈ 2.62 µM) in test [8] (setting [13]); 1.56 µg/mL (≈ 5.24 µM) in test [9] (ATCC62376, read-out: MIC); 0.78 µg/mL (≈ 2.62 µM) in [10] (read-out: MIC).

What is called MIC is the least concentration at which growth counts as inhibited.
